# Experimental data as given in US9212182B2, “Bicyclic sulfonamide compounds as sodium channel inhibitors” (AMGEN INC., priority 2013, dated 2015).
# Biological target: Nav 1.7 (Homo sapiens (Human), UniProt Q15858)
# Assay: in-vitro Nav 1.7 PX (IC50)
# Format: cell-based
# Sequence of Nav 1.7 (Q15858 whole entry): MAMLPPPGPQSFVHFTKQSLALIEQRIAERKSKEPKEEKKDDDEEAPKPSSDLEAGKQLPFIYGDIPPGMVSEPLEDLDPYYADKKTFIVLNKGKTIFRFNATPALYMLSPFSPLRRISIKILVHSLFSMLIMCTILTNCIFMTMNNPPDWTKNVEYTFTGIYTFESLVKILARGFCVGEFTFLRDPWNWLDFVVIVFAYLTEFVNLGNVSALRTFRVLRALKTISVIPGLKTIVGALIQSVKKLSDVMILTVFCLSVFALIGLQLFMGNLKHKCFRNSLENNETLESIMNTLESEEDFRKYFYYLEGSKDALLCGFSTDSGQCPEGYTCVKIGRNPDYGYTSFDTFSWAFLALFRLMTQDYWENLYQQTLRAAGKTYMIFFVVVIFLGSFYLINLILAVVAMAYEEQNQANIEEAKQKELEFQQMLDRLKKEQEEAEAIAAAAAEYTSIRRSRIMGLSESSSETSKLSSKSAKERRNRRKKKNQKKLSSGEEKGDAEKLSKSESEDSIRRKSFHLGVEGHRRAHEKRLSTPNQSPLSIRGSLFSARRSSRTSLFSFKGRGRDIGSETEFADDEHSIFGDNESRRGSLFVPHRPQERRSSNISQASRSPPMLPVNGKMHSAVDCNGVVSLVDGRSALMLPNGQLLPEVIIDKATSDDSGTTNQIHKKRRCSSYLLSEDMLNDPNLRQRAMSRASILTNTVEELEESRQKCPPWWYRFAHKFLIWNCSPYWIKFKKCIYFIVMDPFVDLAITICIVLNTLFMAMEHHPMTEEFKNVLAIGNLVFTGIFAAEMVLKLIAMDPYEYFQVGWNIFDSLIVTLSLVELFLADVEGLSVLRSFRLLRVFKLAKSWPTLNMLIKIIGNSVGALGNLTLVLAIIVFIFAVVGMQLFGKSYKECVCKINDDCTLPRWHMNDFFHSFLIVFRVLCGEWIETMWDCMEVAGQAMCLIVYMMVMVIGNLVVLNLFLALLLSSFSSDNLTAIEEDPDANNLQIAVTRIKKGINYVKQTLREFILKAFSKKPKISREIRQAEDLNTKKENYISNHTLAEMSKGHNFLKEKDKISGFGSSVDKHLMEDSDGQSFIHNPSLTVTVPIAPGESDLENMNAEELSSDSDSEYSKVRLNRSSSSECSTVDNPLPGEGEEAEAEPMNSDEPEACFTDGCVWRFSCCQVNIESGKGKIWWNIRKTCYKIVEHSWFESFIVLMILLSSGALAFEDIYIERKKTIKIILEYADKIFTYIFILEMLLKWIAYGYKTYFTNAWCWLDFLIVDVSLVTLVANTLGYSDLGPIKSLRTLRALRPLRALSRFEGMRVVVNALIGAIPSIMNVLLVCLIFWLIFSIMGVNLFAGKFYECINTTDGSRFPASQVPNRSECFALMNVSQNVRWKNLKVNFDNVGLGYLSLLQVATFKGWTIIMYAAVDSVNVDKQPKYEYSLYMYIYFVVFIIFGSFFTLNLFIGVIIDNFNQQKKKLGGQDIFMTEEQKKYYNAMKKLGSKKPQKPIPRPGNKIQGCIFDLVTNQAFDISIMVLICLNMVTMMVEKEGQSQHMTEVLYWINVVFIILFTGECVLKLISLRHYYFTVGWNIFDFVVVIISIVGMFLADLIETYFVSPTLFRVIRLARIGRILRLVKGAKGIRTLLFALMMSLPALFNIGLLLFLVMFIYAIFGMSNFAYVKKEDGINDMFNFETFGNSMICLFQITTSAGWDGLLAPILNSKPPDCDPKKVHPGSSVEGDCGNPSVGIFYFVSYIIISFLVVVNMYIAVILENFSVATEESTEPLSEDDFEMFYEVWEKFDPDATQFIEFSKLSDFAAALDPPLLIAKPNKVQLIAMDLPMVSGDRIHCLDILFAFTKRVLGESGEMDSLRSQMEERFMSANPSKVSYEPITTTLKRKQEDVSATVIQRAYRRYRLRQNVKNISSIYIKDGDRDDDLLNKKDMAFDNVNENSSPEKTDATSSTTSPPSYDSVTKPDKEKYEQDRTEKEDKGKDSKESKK
row,Structure (SMILES),IC50
1,"COc1ccc(C#CC2CCCC2)cc1-n1c(=O)ccc2cc(S(=O)(=O)Nc3ccon3)ccc21 [Example 1147, 1-(5-(cyclopentylethynyl)-2-methoxyphenyl)-N-3-isoxazolyl-2-oxo-1,2-dihydro-6-quinolinesulfonamide]",121 nM
2,"COc1ccccc1-n1c(=O)ccc2cc(S(=O)(=O)Nc3ccon3)ccc21 [Example 1154, N-(isoxazol-3-yl)-1-(2-methoxyphenyl)-2-oxo-1,2-dihydroquinoline-6-sulfonamide]",10100 nM
3,"COc1cc(-c2ccc(F)c(F)c2)c(F)cc1-n1c(=O)cnc2cc(S(=O)(=O)Nc3ccon3)ccc21 [Example 1179, N-3-isoxazolyl-2-oxo-1-(2,3′,4′-trifluoro-5-methoxy-4-biphenylyl)-1,2-dihydro-6-quinoxalinesulfonamide]",62 nM
4,"COc1cc(-c2ccc(F)c(F)c2)c(F)cc1-n1c(=O)cnc2cc(S(=O)(=O)Nc3cccnn3)ccc21 [Example 1180, 2-oxo-N-3-pyridazinyl-1-(2,3′,4′-trifluoro-5-methoxy-4-biphenylyl)-1,2-dihydro-6-quinoxalinesulfonamide]",265 nM
5,"COc1cc(-c2cccc(OC(F)F)c2)c(F)cc1-n1c(=O)cnc2cc(S(=O)(=O)Nc3ccon3)ccc21 [Example 1193, 1-(3′-(difluoromethoxy)-2-fluoro-5-methoxy-4-biphenylyl)-N-3-isoxazolyl-2-oxo-1,2-dihydro-6-quinoxalinesulfonamide]",93 nM
6,"COc1cc(-c2ccc(Cl)c(C)c2)ccc1-n1c(=O)cnc2cc(S(=O)(=O)Nc3ccon3)ccc21 [Example 1195, 1-(4′-chloro-3-methoxy-3′-methyl-4-biphenylyl)-N-3-isoxazolyl-2-oxo-1,2-dihydro-6-quinoxalinesulfonamide]",54 nM
7,"COc1cc(-c2ccc(Cl)c(C)c2)ccc1-n1c(=O)cnc2cc(S(=O)(=O)Nc3ncccn3)ccc21 [Example 1199, 1-(4′-chloro-3-methoxy-3′-methyl-4-biphenylyl)-2-oxo-N-2-pyrimidinyl-1,2-dihydro-6-quinoxalinesulfonamide]",127 nM
8,"COc1nc(OCC(F)(F)C2CCOCC2)c(Cl)cc1-n1c(=O)ccc2cc(S(=O)(=O)Nc3ccon3)ccc21 [Example 1211, 1-(5-chloro-6-(2,2-difluoro-2-(tetrahydro-2H-pyran-4-yl)ethoxy)-2-methoxy-3-pyridinyl)-N-3-isoxazolyl-2-oxo-1,2-dihydro-6-quinolinesulfonamide]",793 nM
9,"COc1nc(O[C@H](C)C(F)(F)C(F)F)c(Cl)cc1-n1c(=O)ccc2cc(S(=O)(=O)Nc3ccon3)ccc21 [Example 1212, 1-(5-chloro-2-methoxy-6-(((1R)-2,2,3,3-tetrafluoro-1-methylpropyl)oxy)-3-pyridinyl)-N-3-isoxazolyl-2-oxo-1,2-dihydro-6-quinolinesulfonamide, 1-(5-chloro-2-methoxy-6-(((1S)-2,2,3,3-tetrafluoro-1-methylpropyl)oxy)-3-pyridinyl)-N-3-isoxazolyl-2-oxo-1,2-dihydro-6-quinolinesulfonamide]",136 nM
10,"COc1nc(OCc2ccc(F)cc2)c(Cl)cc1-n1c(=O)ccc2cc(S(=O)(=O)Nc3ccon3)ccc21 [Example 1214, 1-(5-chloro-6-((4-fluorobenzyl)oxy)-2-methoxy-3-pyridinyl)-N-3-isoxazolyl-2-oxo-1,2-dihydro-6-quinolinesulfonamide]",111 nM
11,"COc1nc(OCc2ccc(F)c(C(F)(F)F)c2)c(Cl)cc1-n1c(=O)ccc2cc(S(=O)(=O)Nc3ccon3)ccc21 [Example 1215, 1-(5-chloro-6-((4-fluoro-3-(trifluoromethyl)benzyl)oxy)-2-methoxy-3-pyridinyl)-N-3-isoxazolyl-2-oxo-1,2-dihydro-6-quinolinesulfonamide]",24 nM
12,"COc1nc(OCc2ccc(F)c(F)c2)c(Cl)cc1-n1c(=O)ccc2cc(S(=O)(=O)Nc3ccon3)ccc21 [Example 1217, 1-(5-chloro-6-((3,4-difluorobenzyl)oxy)-2-methoxy-3-pyridinyl)-N-3-isoxazolyl-2-oxo-1,2-dihydro-6-quinolinesulfonamide]",96 nM
13,"COc1nc(OCc2cc(F)c(F)c(F)c2)c(Cl)cc1-n1c(=O)ccc2cc(S(=O)(=O)Nc3ccon3)ccc21 [Example 1218, 1-(5-chloro-2-methoxy-6-((3,4,5-trifluorobenzyl)oxy)-3-pyridinyl)-N-3-isoxazolyl-2-oxo-1,2-dihydro-6-quinolinesulfonamide]",39 nM
14,"COc1nc(Oc2ccc(F)cc2)c(Cl)cc1-n1c(=O)ccc2cc(S(=O)(=O)Nc3ccon3)ccc21 [Example 1220, 1-(5-chloro-6-(4-fluorophenoxy)-2-methoxy-3-pyridinyl)-N-3-isoxazolyl-2-oxo-1,2-dihydro-6-quinolinesulfonamide]",3100 nM
15,"COc1nc(Oc2ccc(F)cc2F)c(Cl)cc1-n1c(=O)ccc2cc(S(=O)(=O)Nc3ccon3)ccc21 [Example 1221, 1-(5-chloro-6-(2,4-difluorophenoxy)-2-methoxy-3-pyridinyl)-N-3-isoxazolyl-2-oxo-1,2-dihydro-6-quinolinesulfonamide]",2590 nM
16,"COc1nc(Oc2ccc(F)c(F)c2)c(Cl)cc1-n1c(=O)ccc2cc(S(=O)(=O)Nc3ccon3)ccc21 [Example 1222, 1-(5-chloro-6-(3,4-difluorophenoxy)-2-methoxy-3-pyridinyl)-N-3-isoxazolyl-2-oxo-1,2-dihydro-6-quinolinesulfonamide]",903 nM
17,"COc1nc(O[C@H]2C[C@H]3CC[C@@H]2C3)c(Cl)cc1-n1c(=O)ccc2cc(S(=O)(=O)Nc3ccon3)ccc21 [Example 1223, 1-(6-((1R,2S,4S)-bicyclo[2.2.1]hept-2-yloxy)-5-chloro-2-methoxy-3-pyridinyl)-N-3-isoxazolyl-2-oxo-1,2-dihydro-6-quinolinesulfonamide]",416 nM
18,"COc1nc(O[C@H]2CCCC[C@H]2C)c(Cl)cc1-n1c(=O)ccc2cc(S(=O)(=O)Nc3ccon3)ccc21 [Example 1224, 1-(5-chloro-2-methoxy-6-(((1S,2R)-2-methylcyclohexyl)oxy)-3-pyridinyl)-N-3-isoxazolyl-2-oxo-1,2-dihydro-6-quinolinesulfonamide]",88 nM
19,"COc1nc(N(C)C2CCCC2)c(Cl)cc1-n1c(=O)ccc2cc(S(=O)(=O)Nc3ccon3)ccc21 [Example 1231, 1-(5-chloro-6-(cyclopentyl(methyl)amino)-2-methoxy-3-pyridinyl)-N-3-isoxazolyl-2-oxo-1,2-dihydro-6-quinolinesulfonamide]",115 nM

# More lines, in order of falling IC50, values ahead:
row,IC50,Structure (SMILES)
1,3590 nM,"COc1ccc(CC#N)cc1-n1c(=O)ccc2cc(S(=O)(=O)Nc3ccon3)ccc21 [Example 1146, 1-(5-(cyanomethyl)-2-methoxyphenyl)-N-3-isoxazolyl-2-oxo-1,2-dihydro-6-quinolinesulfonamide]"
2,846 nM,"COc1nc(Oc2cc(F)ccc2F)c(Cl)cc1-n1c(=O)ccc2cc(S(=O)(=O)Nc3ccon3)ccc21 [Example 1225, 1-(5-chloro-6-(2,5-difluorophenoxy)-2-methoxy-3-pyridinyl)-N-3-isoxazolyl-2-oxo-1,2-dihydro-6-quinolinesulfonamide]"
3,805 nM,"COc1cnc(-c2cc(Cl)ccc2F)cc1-n1c(=O)ccc2cc(S(=O)(=O)Nc3ccon3)ccc21 [Example 1169, 1-(2-(5-chloro-2-fluorophenyl)-5-methoxy-4-pyridinyl)-N-3-isoxazolyl-2-oxo-1,2-dihydro-6-quinolinesulfonamide]"
4,316 nM,"COc1nc(Oc2cccc(Cl)c2C)c(Cl)cc1-n1c(=O)ccc2cc(S(=O)(=O)Nc3ccon3)ccc21 [Example 1226, 1-(5-chloro-6-(3-chloro-2-methylphenoxy)-2-methoxy-3-pyridinyl)-N-3-isoxazolyl-2-oxo-1,2-dihydro-6-quinolinesulfonamide]"
5,172 nM,"COc1nc(OCc2ccc(F)cc2F)c(Cl)cc1-n1c(=O)ccc2cc(S(=O)(=O)Nc3ccon3)ccc21 [Example 1213, 1-(5-chloro-6-((2,4-difluorobenzyl)oxy)-2-methoxy-3-pyridinyl)-N-3-isoxazolyl-2-oxo-1,2-dihydro-6-quinolinesulfonamide]"
6,146 nM,"COc1cc(-c2ccc(-n3c(=O)cnc4cc(S(=O)(=O)Nc5ccon5)ccc43)c(OC)c2)ccc1C [Example 1197, 1-(3,3′-dimethoxy-4′-methyl-4-biphenylyl)-N-3-isoxazolyl-2-oxo-1,2-dihydro-6-quinoxalinesulfonamide]"
7,119 nM,"COc1nc(OCc2ccc(F)c(F)c2F)c(Cl)cc1-n1c(=O)ccc2cc(S(=O)(=O)Nc3ccon3)ccc21 [Example 1216, 1-(5-chloro-2-methxy-6-((2,3,4-trifluorobenzyl)oxy)-3-pyridinyl)-N-3-isoxazolyl-2-oxo-1,2-dihydro-6-quinolinesulfonamide]"
8,110 nM,"COc1cc(-c2cc(OC)c(-n3c(=O)cnc4cc(S(=O)(=O)Nc5ncccn5)ccc43)cc2F)ccc1Cl [Example 1201, 1-(4′-chloro-2-fluoro-3′,5-dimethoxy-4-biphenylyl)-2-oxo-N-2-pyrimidinyl-1,2-dihydro-6-quinoxalinesulfonamide]"
9,78 nM,"COc1cc(-c2cccc(C(F)(F)F)c2)ccc1-n1c(=O)cnc2cc(S(=O)(=O)Nc3ncccn3)ccc21 [Example 1200, 1-(3-methoxy-3′-(trifluoromethyl)-4-biphenylyl)-2-oxo-N-2-pyrimidinyl-1,2-dihydro-6-quinoxalinesulfonamide]"
10,56 nM,"COc1cc(-c2ccc(F)c(C)c2)c(F)cc1-n1c(=O)cnc2cc(S(=O)(=O)Nc3ccon3)ccc21 [Example 1194, 1-(2,4′-difluoro-5-methoxy-3′-methyl-4-biphenylyl)-N-3-isoxazolyl-2-oxo-1,2-dihydro-6-quinoxalinesulfonamide]"
11,39 nM,"COc1cc(-c2ccc(F)c(Cl)c2)ccc1-n1c(=O)cnc2cc(S(=O)(=O)Nc3ccon3)ccc21 [Example 1198, 1-(3′-chloro-4′-fluoro-3-methoxy-4-biphenylyl)-N-3-isoxazolyl-2-oxo-1,2-dihydro-6-quinoxalinesulfonamide]"
